Common to all, as to assay type: cell-based, Human
Test [1] relates to ARE sequence of the glutathione S-transferase Ya gene (SEQ ID NO: 5). Nature of the test: Luciferase reporter assay, 3xARE/RBGP-Luc (ARE of SEQ ID NO: 5) in HepG2. The conditions noted are these: HepG2, FIG. 4. An excerpt:
(§1) Then, 3 copies (Mol. Cell. Biol., 14, 700-712 (1994)) of various oligonucleotides (32-mers) containing the MARE sequences of SEQ ID NO: 1 through 7, comparative or control MARE sequences (SEQ ID NO: 1-4, 6 and 7), and an ARE sequence (SEQ ID NO: 5) were respectively inserted into the XhoI site of pUC118 vector with a modified poly-linker sequence. Further, the portion containing the 3 repeats of MARE sequence was excised at KpnI/BamHI site and inserted into the KpnI/BamHI site of pRBGP3. As an example of the above 32mer sequence, the one containing MARE of SEQ ID NO: 2 is shown in SEQ ID NO: 20. Here, tcgag represents the XhoI site.
(§2) Thus obtained were 3xMARE/RBGP-Luc and 3xARE/RBGP-Luc plasmids containing 3 repeats of 32 oligonucleotide sequences containing the 13 oligonucleotides shown in SEQ ID NO: 1 through 7 (MARE sequences, ARE sequences, and the corresponding comparative and control sequences). SEQ ID NO: 21 is an example of the sequence contained in the resulting 3xMARE/RBGP-Luc using SEQ ID NO: 2 as MARE. The obtained recombinant expression vectors were used for subsequent transfections.
(§3) Transfections were carried out using SUPERFECT Transfection Reagent (Qiagen) according to the protocol accompanying the reagent. Human hepatocellular calcinoma cell line HepG2 was subcultured on a 35 mm plate and, after 24 hours, the transfection was carried out. Thus, a transfection solution containing 100 μl of a vector solution containing 0.25 μg of the above plasmid, 100 μl of SUPERFECT transfection reagent, and 600 μl of DMEM serum-free medium were added to a PBS-washed cell plate. After 2 hours of incubation at 37° C., the medium was changed to 10% FCS-supplemented DMEM. After 2 hours, stimulating reagents containing various heavy metal compounds inclusive of auranofin; Ridaura™, product of Sigma; 2,3,4,6-tetra-O-acetyl-1-thio-β-D-glucopyranosato-S) (triethylphosphine)gold were added and the culture was continued. The luciferase activity in the cells was assayed 15-18 hours later.
(§4) The assay of luciferase activity was carried out using Dual-Luciferase Reporter Assay System (product of Promega) according to the manufacture's protocol.
(§5) To the culture plate was added 100 μl of the cytolytic buffer included in the […] kit to lyse the cells, and using a bench-top centrifuge, the lysate was centrifuged at 15,000 rpm for 5 seconds. The supernatant, 20 μl, of the lysate was mixed with 100 μl of the attached reagent LARII and the first chemiluminescence was measured with a luminometer. Then, 100 μl of the stopper (Stop & Glo Reagent) was added and the second chemniluminescence was measured.
(§6) The ratio of the first and second chemiluminescences was determined to calculate luciferase activity.
The results are shown in FIG. 4 similar to FIG. 1 (the abbreviations of reagents added are the same as above; each luciferase activity ratio was calculated with the control value found by culture of the vector in the absence of the test reagent being taken as 1).

Test [2] concerns AP-1 (activator protein-1) element of SEQ ID NO: 7. Nature of the test: Luciferase reporter assay, AP-1 element of SEQ ID NO: 7 in HepG2. The conditions noted are these: 5 μM auranofin vs absence, 18 hours, HepG2, FIG. 3.
Excerpt: as §1, with “site. […]” for “site.”
as §5
(§7) The ratio of the first and second chemiluminescences was determined to calculate luciferase activity. […]
On the technique in general: A reporter such as luciferase makes a cellular process visible.

In test [3] the test system is MARE sequence of SEQ ID NO: 2. Nature of the test: Luciferase reporter assay, 3xMARE/RBGP-Luc (MARE of SEQ ID NO: 2) transfected into HepG2.
Excerpt: (a) Construction of a Recombinant Vector
As the basal skeleton of the recombinant vector, pGL2-Basic (product of Promega) was used. This vector is a luciferse expression vector.
The SV40 promoter of the above pGL2-Basic was substituted with oligonucleotides (SEQ ID NO: 8 and NO: 9, 41-mer each) containing the TATA sequence of rabbit β-globin promoter at Bgl II/Hind III site to construct pRBGP3 (Nature, 367, 568-572 (1994)).
as §1, §2, §3, §4, §5, §6
The recombinant expression vector (reporter plasmid) ligated with the MARE sequence of SEQ ID NO: 2 as constructed under (a) above, namely 3xMARE/RBGP-Luc, was used. Stimulating reagents containing various heavy metal compounds, namely 100 μM each of manganese chloride (MnCl2), cobalt chloride (CoCl2), nickel chloride (NiCl2), copper sulfate (CuSO4), zinc sulfate (ZnSO4), cadmium sulfate (CdSO4), mercury chloride (HgCl2) and sodium tetrachloroaurate(III) (Na(AuCl4)) and 5 μM of auranofin, were respectively added and the cells were cultured by the above procedure (b) for 18 hours. Then, luciferase activity was measured by the procedure described under (c) above. […]

Test [4] deals with MARE sequence of SEQ ID NO: 4. Nature of the test: Luciferase reporter assay, 3xMARE/RBGP-Luc (MARE of SEQ ID NO: 4) in HepG2. The conditions noted are these: 5 μM auranofin vs absence, 18 hours, HepG2, FIG. 3.
Excerpt: as §1, with “site. […]” for “site.”
as §5, §7

In test [5] the test system is control MARE of SEQ ID No: 6. Nature of the test: Luciferase reporter assay, control MARE of SEQ ID NO: 6 in HepG2. As to conditions: 5 μM auranofin vs absence, 18 hours, HepG2, FIG. 3.
Excerpt: as §1, with “site. […]” for “site.”
as §5, §7

In test [6] the test system is 5xSRE (c-fos) serum response element. Nature of the test: Luciferase reporter assay, positive control 5xSRE (c-fos) in HepG2. As to conditions: 5 μM auranofin vs absence, 18 hours, HepG2, FIG. 3. The protocol:
(§8) Transfections were carried out using SUPERFECT Transfection Reagent (Qiagen) according to the protocol accompanying the reagent. Human hepatocellular calcinoma cell line HepG2 was subcultured on a 35 mm plate and, after 24 hours, the transfection was carried out. Thus, a transfection solution containing 100 μl of a vector solution containing 0.25 μg of the above plasmid, 100 μl of SUPERFECT transfection reagent, and 600 μl of DMEM serum-free medium were added to a PBS-washed cell plate. After 2 hours of incubation at 37° C., the medium was changed to 10% FCS-supplemented DMEM. […]
as §5, §7
(§9) Each of the above vectors was cultured by the above procedure (b) for 18 hours in the presence of 5 μM auranofin or in the absence thereof and the luciferase activity was measured by the above procedure (c). […]

For test [7], the system named is MARE sequence of SEQ ID NO: 3. Nature of the test: Luciferase reporter assay, 3xMARE/RBGP-Luc (MARE of SEQ ID NO: 3) in HepG2. The conditions noted are these: 5 μM auranofin vs absence, 18 hours, HepG2, FIG. 3.
Excerpt: as §1, with “site. […]” for “site.”
as §5, §7

Test [8] concerns MARE sequence of SEQ ID NO: 1. Nature of the test: Luciferase reporter assay, 3xMARE/RBGP-Luc (MARE of SEQ ID NO: 1) in HepG2. As to conditions: 5 μM auranofin vs absence, 18 hours, HepG2, FIG. 3.
Excerpt: as §1, with “site. […]” for “site.”
as §5, §7

The subject of the next test is 5xkB (IL2R-a) kB element. Nature of the test: Luciferase reporter assay, positive control 5xkB (IL2R-a) in HepG2. As to conditions: 5 μM auranofin vs absence, 18 hours, HepG2, FIG. 3. On the procedure: as §8, §5, §7, §9
Setting [9] is: 100 μM heavy metal compound, 18 hours, HepG2, control taken as 1, FIG. 1.

The record followed here is US6908761B1, “Transcriptional activators” (Otsuka Pharmaceutical Co., Ltd., priority 1999, dated 2005).

Consider `OC[C@H]1O[C@H]([S-])[C@H](O)[C@@H](O)[C@@H]1O.[Au+]` [AuTG, (1-thio-D-glucopyranosato)gold], for which the “activity ratio (luciferase activity ratio, control taken as 1)” value in test [1] (500 μM) is given as 21.7±15.4.
For the molecule `O=C([O-])CC([S-])C(=O)[O-].[Au+].[Na+].[Na+]` (centres unmarked) [AuTM, sodium aurothiomalate], the “activity ratio (luciferase activity ratio, control taken as 1)” value in test [1] (100 μM) was found to be 8.1±0.4.
Regarding `CC[PH](CC)(CC)[Au][S][C@@H]1O[C@H](COC(C)=O)[C@@H](OC(C)=O)[C@H](OC(C)=O)[C@H]1OC(C)=O` [auranofin, (2,3,4,6-tetra-O-acetyl-1-thio-β-D-glucopyranosato-S)(triethylphosphine)gold], the “action on the reporter (luciferase activity ratio)” value (in [2]; in [5]; in test [6]; in the test with 5xkB (IL2R-a) kB element) was “does not act on” each time. The “transcription activity ratio (luciferase activity ratio)” value in [3] (5 μM auranofin vs absence, 18 hours, HepG2, FIG. 3, study (3)) amounted to 158.7; in [4] it was 112.9; in test [7], 30.8; in test [8] it was 53.3. Also, the “luciferase activity in multiples of untreated control (Fold Activation)” value (“luciferase activity … (Fold Activation)” for short) in test [3] (5 μM auranofin, 18 hours, HepG2, control taken as 1, FIG. 1, study (1)) was 142.4 times. Moreover, in [3] (AUR 0.5-20 μM, AuTG 20-500 μM, AuTM 10-500 μM, HepG2, FIG. 2), the “dose dependence of MARE activation (luciferase activity ratio, Fold Activation)” value is reported as “outstanding luciferase activation compared with the other two kinds of gold compounds”. The “activity ratio (luciferase activity ratio, control taken as 1)” value in [1] (5 μM) was found to be 102.9±53.4. In test [1] (AUR 5 μM vs tBHQ 60 μM), the “activity relative to that of tBHQ” value is listed as “about 30 times”.
For the molecule `O=S(=O)([O-])[O-].[Cd+2]` [cadmium sulfate], the “luciferase activity … (Fold Activation)” value in test [3] (setting [9]) is 27.3.
On the same count and under the same terms, the value for `[Cl][Co][Cl]` [cobalt chloride] was 6.9.
On the same count and under the same terms, the value for `[Cl][Hg][Cl]` [mercury chloride] was 10.
Take `O=C(O)CC(S)C(=O)O` (centres unmarked) [thiomalate]: the “activity ratio (luciferase activity ratio, control taken as 1)” value in [1] (100 μM) stood at 2.1±0.6.
As for `CC(C)(C)c1cc(O)c(C(C)(C)C)cc1O` [tBHQ, 2,5-di-tert-butylhydroquinone], in test [1] (60 μM), the “activity ratio (luciferase activity ratio, control taken as 1)” value is listed as 6.0±3.8.
Take `[Cl][Au-]([Cl])([Cl])[Cl].[Na+]` [sodium tetrachloroaurate(III)]: the “luciferase activity … (Fold Activation)” value in test [3] (setting [9]) worked out at 4.3.
